The text below walks through data of publication PMC9290002, “Development of Urea-Bond-Containing Michael Acceptors as Antitrypanosomal Agents Targeting Rhodesain” (ACS Medicinal Chemistry Letters, 2022).

In assay [1] the target is T1, rhodesain (Trypanosoma brucei rhodesiense, UniProt Q95PM0). As to the kind of experiment: Rhodesain fluorogenic enzyme assay (Cbz-Phe-Arg-AMC). The class given is biochemical. As to conditions: for Ki: dissociation constant of noncovalent E·I complex, corrected to zero substrate concentration; for Rhodesain k2nd: k2nd = kinact/Ki.
The target of assay [2] is human cathepsin L (hCatL) (Homo sapiens, UniProt P07711). Nature of the assay: Enzyme assay towards hCatL. The class given is biochemical.
Assay [3] has as its target T2, main protease (Mpro) of SARS-CoV-2 (Severe acute respiratory syndrome coronavirus 2, UniProt P0DTD1).
T2 construct: the main protease (M^pro) of SARS-CoV-2
Nature of the assay: Enzyme assay towards SARS-CoV-2 Mpro, preliminary screening. Format: biochemical. The conditions noted are these: preliminary screening at 100 μM; read-out: SARS-CoV-2 Mpro percentage of inhibition. The method, then:
In light of this, dilution assays characterizing the mode of inhibition were not performed. Since poor inhibition was shown by the Phe-containing analogues, the Leu derivatives 25 and 26 were not tested against SARS-CoV-2 M^pro.
In all the manipulations regarding the biological evaluation, no unexpected or unusually high safety hazards […]
Enzyme assays towards rhodesain.
The biological activity against rhodesain was evaluated by fluorescence-based assays and all tested compounds were diluted in DMSO. Rhodesain was recombinantly expressed as previously reported2,3 and Cbz-Phe-Arg-AMC (10 µM) was used as the fluorogenic substrate. In the preliminary screening at 0.1 µM, the substrate hydrolysis was determined over a period of 10 min at rt and fluorescence intensity was measured every 30 seconds, whereas the kinetic parameters after the dilutions were determined over a period of 30 min. The assay buffer (pH 5.5) contains 50 mM of sodium acetate, 5 mM of EDTA, 200 mM of NaCl, and 0.005% of Brij 35. Enzyme buffer (pH 5.5) contains 5 mM of DTT and the same chemicals used for assay buffer, with exception of Brij 35. Each independent assay was carried-out twice in duplicate using 96-well-plates in a final volume of 200 µL. Infinity 200 PRO microplate (Tecan, Männedorf, Switzerland) was employed as the fluorescence reader, and a 380 nm excitation filter and a 460 nm emission filter were used.
The first-order inactivation rate costants (k obs) were determined analyzing the progress curves by nonlinear regression analysis using the equation 1 shown in the Chart S1. 4 The obtained k obs values were fitted against the inhibito concentrations to the hyperbolic equation 2, providing the k inact and K iapp values. The latter were corrected to zero substrate concentration by the term (1+[S]/K m) in equation 3. The K m value used to correct K iapp values was determined to 0.9 μM. 5 K i and k inac values were calculated by nonlinear regression analyses using GraFit.6 The second-order rate constants k 2nd = k inact/K i were easily determined from the […]
Chart S1. Equations 1, 2, and 3.
Enzyme assays towards hCatL.
The biological evaluation towards hCatL was performed following the procedure reported in the literature.7 Enzyme assays towards SARS-CoV-2 Mpro.
The biological activity of novel Michael acceptors 1-9 against SARS-CoV-2 M pro was carried-out following the previously described protocol.8
Antitrypanosomal activity.
(1 picture or pasted object on this page, not shown here)

Assay [4] deals with T. b. brucei. Nature of the assay: Antitrypanosomal activity against cultured T. b. brucei (ATPlite assay). Format: cell-based. The conditions noted are these: Trypanosoma brucei, 24 h. The method, then:
All the urea derivatives were tested against cultured T. b. brucei, which expresses rhodesain similarly to T. b. rhodesiense. […] The difference in terms of rhodesain inhibition and antitrypanosomal activity observed for 1 could be due to its poor cell membrane permeability. In fact, we assume that the presence of substituents on the phenyl ring at the P3 position, as well as the extension of the aromatic region, could influence the crossing of cell membranes.
EC50 values for the antitrypanosomal activity were determined using the ATPlite assay as previously
(In ATP-based viability assays light output follows the ATP content of the culture.)

Assay [5] has as its target T1, rhodesain. The conditions noted are these: cited from earlier work; for RD, k2nd: Figure 1.
The test system of a further assay is BSF of T.b. Further details: method as in PMID 19620707. As to conditions: bloodstream form; Figure 1; cited from earlier work.
In assay [6] the test system is T. b. brucei. Further details: method as in PMID 31714776, PMID 28763614. As to conditions: Figure 1; cited from earlier work.

Where two headings read alike, the source gives them in different places.

T1 sequence (Q95PM0 entry or part of it): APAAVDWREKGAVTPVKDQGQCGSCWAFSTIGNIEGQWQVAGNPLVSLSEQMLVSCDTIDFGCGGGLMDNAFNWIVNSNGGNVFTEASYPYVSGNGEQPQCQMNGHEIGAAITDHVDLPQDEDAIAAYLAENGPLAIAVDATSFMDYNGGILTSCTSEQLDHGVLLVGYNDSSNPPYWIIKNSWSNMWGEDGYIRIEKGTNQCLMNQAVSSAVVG
human cathepsin L (hCatL), sequence (P07711 114-333): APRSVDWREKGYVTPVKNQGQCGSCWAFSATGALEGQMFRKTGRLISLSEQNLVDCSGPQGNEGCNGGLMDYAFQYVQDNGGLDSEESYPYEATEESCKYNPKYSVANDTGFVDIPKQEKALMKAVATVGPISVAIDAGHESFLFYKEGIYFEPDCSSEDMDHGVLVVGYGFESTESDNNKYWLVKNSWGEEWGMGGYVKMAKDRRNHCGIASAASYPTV

A word on the kinact: it is the maximal first-order rate at which the target is inactivated. For orientation: inhibition means the drop in the measured response relative to a control, in per cent. In general, EC50 refers to the midpoint of the concentration-response curve. On to `CC(=O)/C=C/[C@H](CCc1ccccc1)NC(=O)[C@H](Cc1ccccc1)NC(=O)Nc1ccc(F)cc1` [compound 4, (S)-2-(3-(4-Fluorophenyl)ureido)-N-((S,E)-6-oxo-1-phenylhept-4-en-3-yl)-3-phenylpropanamide], for which, at rhodesain [1], the Ki amounted to 0.85 ± 0.07 nM and the “Rhodesain k2nd” value was 2480 ± 50 ×10^3 M^–1 min^–1. In assay [2], the Ki is 0.1 ± 0.01 nM, the “hCatL k2nd” value is reported as 5880 ± 120 x 103M-1 min-1 and the kinact was 1e-05 s⁻¹. Besides, the inhibition at 100 µM in assay [3] fell in the range of 33 to 66%. Further, it took 1510 ± 80 nM to reach a half-maximal effect in the assay on T. b. brucei [4] (EC50).
Regarding `CC(=O)/C=C/[C@H](CCc1ccccc1)NC(=O)[C@H](CC(C)C)NC(=O)Nc1ccc(C)cc1` [compound 25, (S)-4-Methyl-N-((S,E)-6-oxo-1-phenylhept-4-en-3-yl)-2-(3-(p-tolyl)ureido)pentanamide], the Ki at rhodesain [1] is 0.42 ± 0.08 nM. For the same molecule, in assay [2], the Ki stood at 0.64 ± 0.02 nM, the “hCatL k2nd” value is reported as 2120 ± 6 x 103M-1 min-1 and the kinact is 2.25e-05 s⁻¹. Besides, the EC50 with T. b. brucei [4] worked out at 1540 ± 90 nM.
Turning to `CC(=O)/C=C/[C@H](CCc1ccccc1)NC(=O)[C@H](CC(C)C)NC(=O)Nc1ccc(Cl)cc1C` [compound 26, (S)-2-(3-(4-chloro-2-methylphenyl)ureido)-4-methyl-N-((S,E)-6-oxo-1-phenylhept-4-en-3-yl)pentanamide], the Ki at rhodesain [1] worked out at 0.93 ± 0.52 nM. Moreover, in assay [2], the Ki worked out at 0.07 ± 0.03 nM, the “hCatL k2nd” value is 14240 ± 5410 x 103M-1 min-1 and the kinact is 1.42e-05 s⁻¹. In addition, the EC50 in the assay on T. b. brucei [4] amounted to 1120 ± 50 nM.
In the case of `CC(C)C[C@H](NC(=O)[C@H]1O[C@@H]1C(=O)O)C(=O)NCCCCN=C(N)N` [E64], on rhodesain [5], the Ki was 35 ± 5 nM, the “Rhodesain k2nd” value is 261 ± 27 ×10^3 M^–1 min^–1 and the Rhodesain kinact was 0.0090 ± 0.0004 min^–1.
Regarding `CN1CCN(C(=O)N[C@@H](Cc2ccccc2)C(=O)N[C@H](/C=C/S(=O)(=O)c2ccccc2)CCc2ccccc2)CC1` [K11777], the “BSF of T.b., ED50” value with BSF of T.b. is 0.9 µM. Further, on rhodesain [5], the “RD, k2nd” value was 9e+06 M⁻¹ min⁻¹ and the “Rhodesain k2nd” value was 9000 ×10^3 M^–1 min^–1.
Take `CC(=O)/C=C/[C@H](CCc1ccccc1)NC(=O)[C@H](Cc1ccccc1)NC(=O)OCc1ccccc1` [RK-52]: the EC50 with T. b. brucei [6] was 2.97 µM. In addition, the “RD, k2nd” value on rhodesain [5] was 6.7e+07 M⁻¹ min⁻¹.
As to `CC(=O)/C=C/[C@H](CCc1ccccc1)NC(=O)[C@H](Cc1ccccc1)NC(=O)Nc1ccc(Cl)cc1C(F)(F)F` [compound 8, (S)-2-(3-(4-Chloro-2-(trifluoromethyl)phenyl)ureido)-N-((S,E)-6-oxo-1-phenylhept-4-en-3-yl)-3-phenylpropanamide], on rhodesain [1], the Ki came out at 1.04 ± 0.31 nM and the “Rhodesain k2nd” value is reported as 6050 ± 790 ×10^3 M^–1 min^–1. Also, in assay [2], the Ki was 2.27 ± 0.43 nM, the “hCatL k2nd” value is listed as 256 ± 71 x 103M-1 min-1 and the kinact was 9.17e-06 s⁻¹. Besides, the inhibition at 100 µM in assay [3] lay within 33 to 66%. Further, in the assay with T. b. brucei [4], a half-maximal effect (EC50) was put at 1280 ± 40 nM.
As to `CC(=O)/C=C/[C@H](CCc1ccccc1)NC(=O)[C@H](Cc1ccccc1)NC(=O)Nc1ccc(Cl)cc1C` [compound 7, (S)-2-(3-(4-Chloro-2-methylphenyl)ureido)-N-((S,E)-6-oxo-1-phenylhept-4-en-3-yl)-3-phenylpropanamide], the Ki on rhodesain [1] is 0.51 ± 0.36 nM. Moreover, in assay [2], the Ki turned out to be 0.18 ± 0.03 nM, the “hCatL k2nd” value is reported as 3110 ± 160 x 103M-1 min-1 and the kinact is 9.17e-06 s⁻¹. Also, the inhibition at 100 µM in assay [3] lay within 33 to 66%. The molecule further showed an EC50 with T. b. brucei [4] of 1650 ± 70 nM.
Consider `CC(=O)/C=C/[C@H](CCc1ccccc1)NC(=O)[C@H](Cc1ccccc1)NC(=O)Nc1c(F)cccc1F` [compound 5, (S)-2-(3-(2,6-Difluorophenyl)ureido)-N-((S,E)-6-oxo-1-phenylhept-4-en-3-yl)-3-phenylpropanamide], for which, at rhodesain [1], the Ki stood at 1.13 ± 0.26 nM and the “Rhodesain k2nd” value is reported as 2030 ± 230 ×10^3 M^–1 min^–1. For the same molecule, in assay [2], the Ki turned out to be 2.14 ± 0.25 nM, the “hCatL k2nd” value is 326 ± 8 x 103M-1 min-1 and the kinact is 1.17e-05 s⁻¹. Further, the inhibition at 100 µM in assay [3] is 33 to 66%. Besides, the response in the assay on T. b. brucei [4] was half-maximal at 3200 ± 280 nM (EC50).
As to `CC(=O)/C=C/[C@H](CCc1ccccc1)NC(=O)[C@H](Cc1ccccc1)NC(=O)Nc1ccc(C)cc1` [compound 3, (S)-N-((S,E)-6-Oxo-1-phenylhept-4-en-3-yl)-3-phenyl-2-(3-(p-tolyl)ureido)propanamide], the Ki on rhodesain [1] was 0.51 ± 0.38 nM. Also, in assay [2], the Ki is 1.32 ± 0.25 nM, the “hCatL k2nd” value is listed as 360 ± 106 x 103M-1 min-1 and the kinact is 7.5e-06 s⁻¹. In addition, the inhibition at 100 µM in assay [3] was 33 to 66%. In addition, in the assay with T. b. brucei [4], the EC50 is 1390 ± 230 nM.
As for `CC(=O)/C=C/[C@H](CCc1ccccc1)NC(=O)[C@H](Cc1ccccc1)NC(=O)Nc1ccc(Cl)cc1` [compound 6, (S)-2-(3-(4-Chlorophenyl)ureido)-N-((S,E)-6-oxo-1-phenylhept-4-en-3-yl)-3-Phenylpropanamide], on rhodesain [1], the Ki is 0.78 ± 0.13 nM and the “Rhodesain k2nd” value is given as 2990 ± 300 ×10^3 M^–1 min^–1. Besides, in assay [2], the Ki is 3.11 ± 1.63 nM, the “hCatL k2nd” value is 321 ± 152 x 103M-1 min-1 and the kinact is 1.25e-05 s⁻¹. Further, the inhibition at 100 µM in assay [3] lay within 33 to 66%. The molecule further gave an EC50 in the assay with T. b. brucei [4] of 1500 ± 240 nM.
Take `CC(=O)/C=C/[C@H](CCc1ccccc1)NC(=O)[C@H](Cc1ccccc1)NC(=O)c1ccc(F)cc1` [PS-1]: the EC50 in the assay on T. b. brucei [6] was 3.6 µM. In addition, the “RD, k2nd” value on rhodesain [5] was 8.81e+08 M⁻¹ min⁻¹.
As to `CC(=O)/C=C/[C@H](CCc1ccccc1)NC(=O)[C@H](Cc1ccccc1)NC(=O)Nc1ccccc1` [compound 1, (S)-N-((S,E)-6-Oxo-1-phenylhept-4-en-3-yl)-3-phenyl-2-(3-phenylureido)propenamide], the Ki at rhodesain [1] was determined as 0.15 ± 0.06 nM. In assay [2], the Ki came out at 0.11 ± 0.01 nM, the “hCatL k2nd” value is listed as 5920 ± 150 x 103M-1 min-1 and the kinact is 1e-05 s⁻¹. For the same molecule, the inhibition at 100 µM in assay [3] is 33 to 66%. In addition, the EC50 with T. b. brucei [4] is 19800 ± 2670 nM.
`COc1ccc(NC(=O)N[C@@H](Cc2ccccc2)C(=O)N[C@H](/C=C/C(C)=O)CCc2ccccc2)cc1` [compound 2, (S)-2-(3-(4-Methoxyphenyl)ureido)-N-((S,E)-6-oxo-1-phenylhept-4-en-3-yl)-3-phenylpropanamide]: at rhodesain [1], the Ki stood at 1.05 ± 0.33 nM and the “Rhodesain k2nd” value is 5820 ± 490 ×10^3 M^–1 min^–1. Moreover, in assay [2], the Ki was found to be 81.9 ± 1.06 nM, the “hCatL k2nd” value is reported as 9 ± 1 x 103M-1 min-1 and the kinact was 1.33e-05 s⁻¹. The inhibition at 100 µM in assay [3] lay in the range of 33 to 66%. Moreover, in the assay with T. b. brucei [4], the EC50 worked out at 2080 ± 220 nM.
As for `CC(=O)/C=C/[C@H](CCc1ccccc1)NC(=O)[C@H](Cc1ccccc1)NC(=O)Nc1cccc2ccccc12` [compound 9, (S)-2-(3-(Naphthalen-1-yl)ureido)-N-((S,E)-6-oxo-1-phenylhept-4-en-3-yl)-3-phenylpropanamide], at rhodesain [1], the Ki stood at 2.51 ± 1.51 nM and the “Rhodesain k2nd” value is recorded as 4170 ± 1360 ×10^3 M^–1 min^–1. For the same molecule, in assay [2], the Ki stood at 0.051 ± 0.001 nM, the “hCatL k2nd” value is recorded as 12820 ± 1050 x 103M-1 min-1 and the inactivation rate constant (kinact) was 1.08e-05 s⁻¹. Moreover, the inhibition at 100 µM in assay [3] was in the range of 33 to 66%. Also, the response in the assay on T. b. brucei [4] was half-maximal at 2280 ± 270 nM (EC50).
